From US10299999B2, “Flavour composition comprising menthol and menthane carboxamides” (Givaudan, S.A., priority 2011, dated 2019)

Experiment: Toothpaste sensory panel: flavours A-C at 1% in silica toothpaste base, scored 0-10 for cooling, tingling, freshness and overall preference
Assay type: in vivo, naive volunteers
Settings: low levels replacing high levels of menthol in a toothpaste flavour
Description: The Flavours were each incorporated into a standard silica toothpaste base at 1%:
All three toothpastes were coded and given to 37 naive volunteers. The volunteers were asked to brush the teeth for 30 seconds and score each toothpaste (0-10 scale) for cooling, tingling and freshness at each of six time points: 0 minutes, 5 minutes, 10 minutes, 20 minutes, 30 minutes and 60 minutes. At the end of the 60 minutes, they were also asked for their overall preference scores (0-10 scale).

CC(C)[C@@H]1CC[C@@H](C)C[C@H]1C(=O)Nc1ccc(CC#N)cc1 (stereo in doubt) [Evercool 180, N-(4-cyanomethylphenyl) p-menthanecarboxamide]
sensorial benefits compared with the flavour with the high levels of menthol: superior sensorial benefits
